Assay results: the supplement of paper PMC12076712

Key:
Assay in all cases: pIC50, kinobeads binding competition
UniProt P45985 = molecular target: T1, UniProt P45985
T1 sequence (whole entry): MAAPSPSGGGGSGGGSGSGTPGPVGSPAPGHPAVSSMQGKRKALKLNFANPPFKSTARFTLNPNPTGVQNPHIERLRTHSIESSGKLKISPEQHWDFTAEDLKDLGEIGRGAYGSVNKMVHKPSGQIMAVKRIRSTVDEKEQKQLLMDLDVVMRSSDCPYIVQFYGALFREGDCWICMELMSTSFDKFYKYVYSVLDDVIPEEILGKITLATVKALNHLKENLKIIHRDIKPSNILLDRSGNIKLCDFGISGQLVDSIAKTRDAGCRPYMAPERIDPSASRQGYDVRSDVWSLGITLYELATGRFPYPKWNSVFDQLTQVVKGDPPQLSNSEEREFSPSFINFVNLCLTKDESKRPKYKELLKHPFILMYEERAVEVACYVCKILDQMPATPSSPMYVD
Summary of the method: (§1)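 Either living Jurkat cells (60 min at 37 °C, then lysis) or lysates (60 min at 4 °C) were treated with nine compound concentrations from a top of 30 μM, in 1:4 steps for cells and 1:5 steps for lysates. The lysates were from Jurkat cells or a 1:1:1:1 mix of HEK293, K-562, HepG2 and placenta. Kinobeads-bound proteins were digested and quantified by TMT10 LC-MS/MS. pIC50 was calculated by logistic dose-response fitting (R drc package) of fold changes relative to vehicle, in biological duplicates.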

UniProt P46734 = molecular target: T2, UniProt P46734
T2 sequence (whole entry): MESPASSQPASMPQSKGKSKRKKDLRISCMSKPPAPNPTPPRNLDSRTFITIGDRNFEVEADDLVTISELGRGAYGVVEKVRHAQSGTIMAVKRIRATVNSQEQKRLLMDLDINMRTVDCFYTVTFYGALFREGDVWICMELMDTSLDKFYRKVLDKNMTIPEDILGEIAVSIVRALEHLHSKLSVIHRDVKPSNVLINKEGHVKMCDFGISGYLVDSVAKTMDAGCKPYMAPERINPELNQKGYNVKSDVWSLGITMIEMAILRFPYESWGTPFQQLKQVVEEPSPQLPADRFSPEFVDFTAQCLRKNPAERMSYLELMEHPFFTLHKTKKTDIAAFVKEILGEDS
Summary of the method: as §1

SLK = SLK (UniProt Q9H2G2)
Sequence of SLK (Q9H2G2 whole entry, looked up): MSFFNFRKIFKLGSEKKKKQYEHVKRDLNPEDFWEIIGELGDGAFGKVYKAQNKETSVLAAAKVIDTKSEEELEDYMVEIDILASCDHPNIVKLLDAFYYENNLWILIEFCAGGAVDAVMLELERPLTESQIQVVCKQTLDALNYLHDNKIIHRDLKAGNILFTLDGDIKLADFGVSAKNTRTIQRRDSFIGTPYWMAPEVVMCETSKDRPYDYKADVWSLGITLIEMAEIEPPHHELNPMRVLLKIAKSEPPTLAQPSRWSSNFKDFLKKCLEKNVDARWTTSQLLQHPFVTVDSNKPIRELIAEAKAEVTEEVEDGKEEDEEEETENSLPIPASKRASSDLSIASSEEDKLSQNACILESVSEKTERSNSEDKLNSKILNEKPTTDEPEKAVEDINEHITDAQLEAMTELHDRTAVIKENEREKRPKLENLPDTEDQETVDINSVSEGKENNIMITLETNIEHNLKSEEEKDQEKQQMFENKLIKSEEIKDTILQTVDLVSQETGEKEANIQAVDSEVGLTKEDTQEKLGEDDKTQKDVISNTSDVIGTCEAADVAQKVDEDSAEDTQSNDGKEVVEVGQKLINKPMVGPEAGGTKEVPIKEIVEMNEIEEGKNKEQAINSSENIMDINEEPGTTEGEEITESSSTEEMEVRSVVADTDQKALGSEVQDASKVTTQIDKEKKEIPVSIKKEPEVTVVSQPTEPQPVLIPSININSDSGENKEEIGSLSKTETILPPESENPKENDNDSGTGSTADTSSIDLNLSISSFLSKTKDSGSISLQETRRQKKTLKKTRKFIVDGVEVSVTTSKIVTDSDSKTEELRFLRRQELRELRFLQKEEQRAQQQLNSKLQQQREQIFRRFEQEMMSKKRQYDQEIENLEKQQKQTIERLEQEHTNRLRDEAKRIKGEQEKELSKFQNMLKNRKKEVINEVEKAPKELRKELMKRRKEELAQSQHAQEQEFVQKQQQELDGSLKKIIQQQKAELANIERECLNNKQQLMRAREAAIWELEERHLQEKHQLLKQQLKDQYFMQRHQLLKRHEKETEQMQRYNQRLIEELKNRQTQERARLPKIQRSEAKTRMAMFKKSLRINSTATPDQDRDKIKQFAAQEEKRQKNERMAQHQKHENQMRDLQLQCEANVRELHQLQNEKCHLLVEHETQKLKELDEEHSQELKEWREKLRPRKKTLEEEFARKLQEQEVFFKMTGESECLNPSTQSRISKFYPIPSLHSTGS
Summary of the method: as §1

ULK1 = molecular target: T3, ULK1 (UniProt O75385)
T3 sequence (whole entry): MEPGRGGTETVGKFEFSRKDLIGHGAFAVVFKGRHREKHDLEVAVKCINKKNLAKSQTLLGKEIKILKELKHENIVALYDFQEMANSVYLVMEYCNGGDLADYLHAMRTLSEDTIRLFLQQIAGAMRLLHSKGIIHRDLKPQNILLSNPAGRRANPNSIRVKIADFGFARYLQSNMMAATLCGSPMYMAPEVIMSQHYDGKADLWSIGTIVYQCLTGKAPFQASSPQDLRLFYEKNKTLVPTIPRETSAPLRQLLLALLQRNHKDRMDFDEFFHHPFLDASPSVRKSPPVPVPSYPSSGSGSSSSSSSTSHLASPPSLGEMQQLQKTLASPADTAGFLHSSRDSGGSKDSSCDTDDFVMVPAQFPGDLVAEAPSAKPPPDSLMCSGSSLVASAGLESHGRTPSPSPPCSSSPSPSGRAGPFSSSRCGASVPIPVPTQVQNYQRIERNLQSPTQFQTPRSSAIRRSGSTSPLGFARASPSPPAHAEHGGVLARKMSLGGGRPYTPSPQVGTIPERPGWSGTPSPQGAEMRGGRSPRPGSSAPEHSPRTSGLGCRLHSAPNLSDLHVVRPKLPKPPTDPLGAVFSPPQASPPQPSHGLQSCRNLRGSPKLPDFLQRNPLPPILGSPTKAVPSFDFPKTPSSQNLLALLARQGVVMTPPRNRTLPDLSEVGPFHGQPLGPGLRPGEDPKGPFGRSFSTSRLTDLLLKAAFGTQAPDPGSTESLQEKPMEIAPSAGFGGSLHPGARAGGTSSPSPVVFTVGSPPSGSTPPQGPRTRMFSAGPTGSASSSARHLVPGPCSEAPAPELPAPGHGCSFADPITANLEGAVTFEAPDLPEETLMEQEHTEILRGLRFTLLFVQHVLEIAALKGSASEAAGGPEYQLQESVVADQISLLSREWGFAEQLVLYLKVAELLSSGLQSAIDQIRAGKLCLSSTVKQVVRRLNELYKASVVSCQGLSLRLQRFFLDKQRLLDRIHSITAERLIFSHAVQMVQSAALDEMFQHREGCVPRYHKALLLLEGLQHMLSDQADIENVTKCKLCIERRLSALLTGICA
Summary of the method: as §1

CDK8 = CDK8 (UniProt P49336)
Sequence of CDK8 (P49336 whole entry): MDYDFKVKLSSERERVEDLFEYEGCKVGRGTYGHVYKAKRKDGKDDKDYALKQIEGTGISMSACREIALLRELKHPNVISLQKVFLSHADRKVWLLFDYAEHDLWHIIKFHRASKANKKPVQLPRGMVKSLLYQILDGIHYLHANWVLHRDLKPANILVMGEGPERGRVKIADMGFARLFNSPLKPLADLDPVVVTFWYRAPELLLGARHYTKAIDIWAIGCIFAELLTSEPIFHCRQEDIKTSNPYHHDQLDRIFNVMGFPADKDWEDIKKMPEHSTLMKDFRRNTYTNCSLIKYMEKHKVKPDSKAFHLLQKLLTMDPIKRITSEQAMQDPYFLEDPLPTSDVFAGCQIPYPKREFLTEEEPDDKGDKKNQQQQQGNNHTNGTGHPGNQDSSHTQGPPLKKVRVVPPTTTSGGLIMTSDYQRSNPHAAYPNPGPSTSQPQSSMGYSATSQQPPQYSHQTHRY
Summary of the method: as §1

UniProt O94804 = molecular target: UniProt O94804
Sequence of UniProt O94804 (O94804 whole entry, looked up): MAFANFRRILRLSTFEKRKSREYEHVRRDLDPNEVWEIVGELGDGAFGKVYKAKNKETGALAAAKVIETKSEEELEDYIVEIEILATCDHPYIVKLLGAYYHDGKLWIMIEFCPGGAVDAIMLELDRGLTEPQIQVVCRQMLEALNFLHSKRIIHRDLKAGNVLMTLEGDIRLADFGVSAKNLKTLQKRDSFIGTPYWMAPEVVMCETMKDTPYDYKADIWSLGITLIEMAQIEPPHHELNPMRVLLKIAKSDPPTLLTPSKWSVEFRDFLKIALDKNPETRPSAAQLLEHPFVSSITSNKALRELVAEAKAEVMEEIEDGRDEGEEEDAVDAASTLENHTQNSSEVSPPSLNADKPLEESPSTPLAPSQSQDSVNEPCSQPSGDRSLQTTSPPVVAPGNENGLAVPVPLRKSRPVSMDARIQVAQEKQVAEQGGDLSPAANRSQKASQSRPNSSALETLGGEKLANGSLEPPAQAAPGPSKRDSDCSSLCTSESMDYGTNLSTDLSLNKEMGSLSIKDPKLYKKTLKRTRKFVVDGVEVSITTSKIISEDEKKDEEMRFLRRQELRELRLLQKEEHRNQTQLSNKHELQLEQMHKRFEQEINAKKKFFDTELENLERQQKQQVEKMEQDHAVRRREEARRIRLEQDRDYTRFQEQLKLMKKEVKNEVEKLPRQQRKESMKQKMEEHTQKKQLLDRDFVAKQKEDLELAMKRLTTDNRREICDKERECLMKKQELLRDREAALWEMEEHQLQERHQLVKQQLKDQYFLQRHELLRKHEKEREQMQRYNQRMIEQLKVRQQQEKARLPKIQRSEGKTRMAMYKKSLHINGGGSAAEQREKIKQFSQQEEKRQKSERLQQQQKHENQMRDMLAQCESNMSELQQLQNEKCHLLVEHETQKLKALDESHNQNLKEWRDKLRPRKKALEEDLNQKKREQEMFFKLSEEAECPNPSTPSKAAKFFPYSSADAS
Summary of the method: as §1

BMPR1A = BMPR1A (UniProt P36894)
Sequence of BMPR1A (P36894 whole entry): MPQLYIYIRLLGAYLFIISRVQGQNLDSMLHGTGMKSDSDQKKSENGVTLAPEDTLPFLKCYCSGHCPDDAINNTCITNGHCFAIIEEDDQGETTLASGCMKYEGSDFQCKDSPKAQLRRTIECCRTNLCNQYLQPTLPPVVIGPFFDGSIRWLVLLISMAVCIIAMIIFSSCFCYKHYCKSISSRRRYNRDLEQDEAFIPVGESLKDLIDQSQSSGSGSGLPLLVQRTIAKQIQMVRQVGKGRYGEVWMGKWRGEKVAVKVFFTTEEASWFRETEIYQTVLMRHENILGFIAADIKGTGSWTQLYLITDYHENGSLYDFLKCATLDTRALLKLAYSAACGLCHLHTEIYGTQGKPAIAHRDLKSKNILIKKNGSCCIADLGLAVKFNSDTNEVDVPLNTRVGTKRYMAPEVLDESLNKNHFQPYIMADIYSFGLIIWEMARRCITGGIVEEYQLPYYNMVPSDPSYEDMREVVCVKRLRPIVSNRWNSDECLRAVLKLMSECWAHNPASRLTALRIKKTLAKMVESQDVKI
Summary of the method: as §1

DAPK3 = DAPK3 (UniProt O43293)
Sequence of DAPK3 (O43293 whole entry, looked up): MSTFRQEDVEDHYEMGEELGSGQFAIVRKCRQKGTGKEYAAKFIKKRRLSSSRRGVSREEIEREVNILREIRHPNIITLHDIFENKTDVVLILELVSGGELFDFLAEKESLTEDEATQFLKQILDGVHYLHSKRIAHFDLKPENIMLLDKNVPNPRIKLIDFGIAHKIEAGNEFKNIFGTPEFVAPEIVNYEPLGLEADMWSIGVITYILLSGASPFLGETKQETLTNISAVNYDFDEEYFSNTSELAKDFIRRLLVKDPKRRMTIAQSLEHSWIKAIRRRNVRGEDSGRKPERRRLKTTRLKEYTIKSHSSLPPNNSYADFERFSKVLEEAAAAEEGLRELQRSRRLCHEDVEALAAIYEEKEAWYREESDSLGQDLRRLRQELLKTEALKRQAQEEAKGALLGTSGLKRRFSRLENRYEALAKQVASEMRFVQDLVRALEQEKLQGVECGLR
Summary of the method: as §1

UniProt Q9UEE5 = molecular target: T4, UniProt Q9UEE5
T4 sequence (whole entry): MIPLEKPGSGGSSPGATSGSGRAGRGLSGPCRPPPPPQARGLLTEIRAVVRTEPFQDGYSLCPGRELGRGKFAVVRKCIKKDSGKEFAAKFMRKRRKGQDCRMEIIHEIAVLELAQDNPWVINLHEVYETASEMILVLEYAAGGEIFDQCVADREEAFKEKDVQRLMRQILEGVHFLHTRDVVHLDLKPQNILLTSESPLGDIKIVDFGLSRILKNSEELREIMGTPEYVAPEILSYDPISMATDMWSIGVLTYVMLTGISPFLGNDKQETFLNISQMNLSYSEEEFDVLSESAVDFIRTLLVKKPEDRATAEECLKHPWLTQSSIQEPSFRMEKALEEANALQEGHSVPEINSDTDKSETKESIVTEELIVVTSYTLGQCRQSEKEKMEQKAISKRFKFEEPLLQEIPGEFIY
Summary of the method: as §1

Row | SMILES | pIC50 (UniProt P45985; cell material: Jurkat lysate) | pIC50 (UniProt P45985; cell material: Lysate mix) | pIC50 (UniProt P46734; cell material: Jurkat cells) | pIC50 (UniProt P46734; cell material: Jurkat lysate) | pIC50 (UniProt P46734; cell material: Lysate mix) | pIC50 (SLK; cell material: Jurkat cells) | pIC50 (SLK; cell material: Jurkat lysate) | pIC50 (SLK; cell material: Lysate mix) | pIC50 (ULK1; cell material: Jurkat lysate) | pIC50 (ULK1; cell material: Lysate mix) | pIC50 (CDK8; cell material: Jurkat cells) | pIC50 (CDK8; cell material: Jurkat lysate) | pIC50 (CDK8; cell material: Lysate mix) | pIC50 (UniProt O94804; cell material: Jurkat cells) | pIC50 (UniProt O94804; cell material: Jurkat lysate) | pIC50 (UniProt O94804; cell material: Lysate mix) | pIC50 (BMPR1A; cell material: Jurkat cells) | pIC50 (BMPR1A; cell material: Jurkat lysate) | pIC50 (BMPR1A; cell material: Lysate mix) | pIC50 (DAPK3; cell material: Jurkat cells) | pIC50 (DAPK3; cell material: Lysate mix) | pIC50 (UniProt Q9UEE5; cell material: Jurkat lysate) | pIC50 (UniProt Q9UEE5; cell material: Lysate mix) | pIC50 (UniProt P45985; cell material: Jurkat cells) | pIC50 (UniProt Q9UEE5; cell material: Jurkat cells)
1 | O=C(NCCNC(=O)c1cc(Nc2cc(C3CC3)[nH]n2)nc(N2CCN(Cc3ccc(S(=O)(=O)F)cc3)CC2)n1)OC1CC/C=C/CCC1 (configuration not stated) | < 4.52 | < 4.52 | < 4.52 | < 4.52 | < 4.52 | < 4.52 | < 4.52 | < 4.52 | < 4.52 | < 4.52 | < 4.52 | < 4.52 | < 4.52 | < 4.52 | < 4.52 | < 4.52 | < 4.52 | < 4.52 | < 4.52 | < 4.52 | < 4.52 | < 4.52 | < 4.52 | – | –
2 | Cc1cc(Nc2cc(C(=O)NCCNC(=O)OC3CC/C=C/CCC3)nc(N3CCN(Cc4ccc(S(=O)(=O)F)cc4)CC3)n2)n[nH]1 (configuration not stated) | – | < 4.52 | – | – | < 4.52 | – | – | < 4.52 | – | < 4.52 | – | – | < 4.52 | – | – | < 4.52 | – | – | < 4.52 | – | < 4.52 | – | < 4.52 | – | –
3 | CCNC(=O)c1cc(Nc2cc(C3CC3)[nH]n2)nc(N2CCN(Cc3ccc(S(=O)(=O)F)cc3)CC2)n1 | – | 4.88 | – | – | 4.9 | – | – | < 4.52 | – | 4.9 | – | – | < 4.52 | – | – | < 4.52 | – | – | 4.87 | – | 4.83 | – | < 4.52 | – | –
4 | CCNC(=O)c1cc(Nc2cc(C)[nH]n2)nc(N2CCN(Cc3ccc(S(=O)(=O)F)cc3)CC2)n1 | – | < 4.52 | – | – | < 4.52 | – | – | < 4.52 | – | < 4.52 | – | – | < 4.52 | – | – | < 4.52 | – | – | < 4.52 | – | 5.14 | – | < 4.52 | – | –
5 | C#CCNC(=O)c1cc(Nc2cc(C3CC3)[nH]n2)nc(N2CCN(Cc3ccc(S(=O)(=O)F)cc3)CC2)n1 | < 4.52 | 4.82 | 5.54 | – | 4.87 | 5.46 | < 4.52 | < 4.52 | < 4.52 | 4.85 | < 4.52 | < 4.52 | < 4.52 | 5.04 | < 4.52 | < 4.52 | 4.69 | < 4.52 | 4.99 | – | < 4.52 | < 4.52 | < 4.52 | 5.86 | 5.42
6 | C#CCNC(=O)c1cc(Nc2cc(C)[nH]n2)nc(N2CCN(Cc3ccc(S(=O)(=O)F)cc3)CC2)n1 | – | < 4.52 | – | – | < 4.52 | – | – | < 4.52 | – | < 4.52 | – | – | < 4.52 | – | – | < 4.52 | – | – | < 4.52 | – | 4.77 | – | < 4.52 | – | –
